How the values were obtained:
TK6 = assay: Cytotoxicity in human TK6 cells in presence of Aroclor 1254-induced rat liver S9 fraction by micronucleus test; format: toxicity, cell-based
[1] = Metabolic stability in human liver S9 fraction assessed as compound remaining at 3 uM measured at 60 mins by LC-MS/MS analysis; format: ADME, subcellular; settings: read-out: Stability
[2] = Metabolic stability in rat liver S9 fraction assessed as compound remaining at 3 uM measured at 60 mins by LC-MS/MS analysis; format: ADME, subcellular; settings: read-out: Stability
[3] = Mutagenicity in Salmonella typhimurium TA97 in presence of liver S9 fraction by AMES test; format: toxicity, subcellular; settings: salmonella enterica subsp. enterica serovar typhimurium
[4] = Mutagenicity in Salmonella typhimurium TA100 in presence of liver S9 fraction by AMES test; format: toxicity, subcellular; settings: salmonella enterica subsp. enterica serovar typhimurium
[5] = Mutagenicity in Escherichia coli WP2 uvrA in absence of liver S9 fraction by AMES test; format: toxicity
[6] = Mutagenicity in Salmonella typhimurium TA100 in absence of liver S9 fraction by AMES test; format: toxicity; settings: salmonella enterica subsp. enterica serovar typhimurium
[7] = Mutagenicity in Salmonella typhimurium TA98 in presence of liver S9 fraction by AMES test; format: toxicity, subcellular; settings: salmonella enterica subsp. enterica serovar typhimurium
[8] = Mutagenicity in Salmonella typhimurium TA1535 in presence of liver S9 fraction by AMES test; format: toxicity, subcellular; settings: salmonella enterica subsp. enterica serovar typhimurium
[9] = Mutagenicity in Salmonella typhimurium TA98 in absence of liver S9 fraction by AMES test; format: toxicity; settings: salmonella enterica subsp. enterica serovar typhimurium
[10] = Mutagenicity in Salmonella typhimurium TA1535 in absence of liver S9 fraction by AMES test; format: toxicity; settings: salmonella enterica subsp. enterica serovar typhimurium
Litomosoides sigmodontis = assay: Antiparasitic activity against Litomosoides sigmodontis infected in Meriones assessed as reduction in worm burden at 15 mg/kg, sc BID administered for 7 days; format: functional; parameters: scale not given: the % may be the effect or the level left; settings: time 7 day
[11] = Mutagenicity in Salmonella typhimurium TA97 in absence of liver S9 fraction by AMES test; format: toxicity; settings: salmonella enterica subsp. enterica serovar typhimurium
[12] = Mutagenicity in Escherichia coli WP2 uvrA in presence of liver S9 fraction by AMES test; format: toxicity, subcellular

Compound	Activity (TK6)	remaining at 1 h, 3 µM [1]	remaining at 1 h, 3 µM [2]	Activity [3]	Activity [4]	Activity [5]	Activity [6]	Activity [7]	Activity [8]	Activity [9]	Activity [10]	Activity (Litomosoides sigmodontis)	Activity [11]	Activity [12]
Cc1nccnc1Nc1nc(-c2ccc(OC(C)C)cn2)ns1	Non-Toxic	94%	100%	–	–	–	–	–	–	–	–	–	–	–
CC(=O)N(C)c1cccnc1Nc1nc(-c2ccc(OC(C)C)cn2)ns1	–	–	–	Non-Toxic	Non-Toxic	Non-Toxic	Non-Toxic	Non-Toxic	Non-Toxic	Non-Toxic	Non-Toxic	58.9%	Non-Toxic	Non-Toxic

Reference: ChEMBL document CHEMBL5137098, “Discovery of Substituted Di(pyridin-2-yl)-1,2,4-thiadiazol-5-amines as Novel Macrofilaricidal Compounds for the Treatment of Human Filarial Infections” (J Med Chem, 2022)
